Measured values reported in US20220340597A1, “HEXAHYDRO-1H-PYRAZINO[1,2-A]PYRAZINE COMPOUNDS FOR THE TREATMENT OF AUTOIMMUNE DISEASE” (Hoffmann-La Roche Inc., priority 2019, published 2022).

Columns and labels:
human TLR8 = molecular target: T1, human TLR8 (Homo sapiens, UniProt Q9NR97); assay: HEK293-Blue-hTLR-8 cells assay
T1 sequence (Q9NR97 27-1041): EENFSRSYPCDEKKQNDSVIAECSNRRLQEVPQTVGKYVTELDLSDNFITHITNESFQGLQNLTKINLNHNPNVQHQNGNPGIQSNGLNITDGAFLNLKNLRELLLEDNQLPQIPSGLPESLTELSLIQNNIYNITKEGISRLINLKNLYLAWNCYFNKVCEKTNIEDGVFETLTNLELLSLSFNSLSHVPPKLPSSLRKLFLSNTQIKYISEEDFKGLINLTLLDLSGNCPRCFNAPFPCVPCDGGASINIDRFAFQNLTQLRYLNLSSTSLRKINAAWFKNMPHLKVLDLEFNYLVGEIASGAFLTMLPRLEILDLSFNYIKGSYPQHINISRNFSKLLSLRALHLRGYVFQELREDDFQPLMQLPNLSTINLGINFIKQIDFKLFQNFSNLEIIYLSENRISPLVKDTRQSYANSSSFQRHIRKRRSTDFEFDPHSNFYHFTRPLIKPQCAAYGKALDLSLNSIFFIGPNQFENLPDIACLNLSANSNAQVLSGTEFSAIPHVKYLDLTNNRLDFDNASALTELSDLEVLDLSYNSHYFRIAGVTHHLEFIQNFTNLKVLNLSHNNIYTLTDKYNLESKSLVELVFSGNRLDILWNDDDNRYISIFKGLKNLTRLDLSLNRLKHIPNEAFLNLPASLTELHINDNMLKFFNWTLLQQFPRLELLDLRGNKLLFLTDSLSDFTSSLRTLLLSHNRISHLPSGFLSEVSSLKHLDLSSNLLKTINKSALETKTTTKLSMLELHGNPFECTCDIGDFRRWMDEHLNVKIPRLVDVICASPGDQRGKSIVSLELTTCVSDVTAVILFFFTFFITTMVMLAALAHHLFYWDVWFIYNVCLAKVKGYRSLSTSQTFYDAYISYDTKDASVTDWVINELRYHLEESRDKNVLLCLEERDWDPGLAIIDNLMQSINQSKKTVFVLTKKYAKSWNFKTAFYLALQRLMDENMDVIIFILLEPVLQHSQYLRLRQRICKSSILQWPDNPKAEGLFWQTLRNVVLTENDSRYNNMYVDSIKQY

human TLR9 = molecular target: T2, human TLR9 (Homo sapiens, UniProt Q9NR96); assay: HEK293-Blue-hTLR-9 cells assay; type: cell-based; settings: HEK293-Blue-hTLR9 cells, ODN2006 stimulation, 20 hrs, SEAP reporter; read-out: HEK/hTLR9 IC50
T2 construct: host or cells: HEK293 (HEK-Blue hTLR9)
T2 sequence (Q9NR96 26-1032): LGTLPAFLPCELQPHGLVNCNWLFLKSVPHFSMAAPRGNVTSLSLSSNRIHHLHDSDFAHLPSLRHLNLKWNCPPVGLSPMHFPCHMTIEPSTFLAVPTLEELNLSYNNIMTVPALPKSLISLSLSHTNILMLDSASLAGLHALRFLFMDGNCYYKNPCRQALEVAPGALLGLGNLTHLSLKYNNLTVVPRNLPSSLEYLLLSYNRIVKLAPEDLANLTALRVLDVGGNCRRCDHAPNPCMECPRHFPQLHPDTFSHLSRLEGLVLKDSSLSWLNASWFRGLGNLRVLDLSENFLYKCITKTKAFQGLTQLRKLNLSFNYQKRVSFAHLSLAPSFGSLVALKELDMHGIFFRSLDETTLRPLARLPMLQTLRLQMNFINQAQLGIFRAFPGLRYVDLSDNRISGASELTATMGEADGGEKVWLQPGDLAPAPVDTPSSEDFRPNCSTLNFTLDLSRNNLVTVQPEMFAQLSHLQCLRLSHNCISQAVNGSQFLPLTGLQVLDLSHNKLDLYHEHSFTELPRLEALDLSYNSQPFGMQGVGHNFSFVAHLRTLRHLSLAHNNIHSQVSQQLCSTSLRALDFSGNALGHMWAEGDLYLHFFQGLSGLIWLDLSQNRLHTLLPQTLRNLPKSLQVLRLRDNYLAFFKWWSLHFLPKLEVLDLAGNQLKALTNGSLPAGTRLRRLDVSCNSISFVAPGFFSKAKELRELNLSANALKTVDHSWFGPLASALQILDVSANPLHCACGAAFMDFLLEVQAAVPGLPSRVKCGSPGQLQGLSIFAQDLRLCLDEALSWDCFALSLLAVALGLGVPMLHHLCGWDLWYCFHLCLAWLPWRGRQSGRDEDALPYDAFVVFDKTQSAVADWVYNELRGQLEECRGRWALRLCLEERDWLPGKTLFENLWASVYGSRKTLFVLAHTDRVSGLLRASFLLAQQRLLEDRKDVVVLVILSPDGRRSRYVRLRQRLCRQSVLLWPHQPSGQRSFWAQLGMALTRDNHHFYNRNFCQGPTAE

Row | Structure (SMILES) | IC50 (human TLR8) | IC50 (human TLR9)
1 | [2H]c1ccc2c(N3C[C@@H]4CN(c5ccc([C@@H]6CNCCO6)cc5)CCN4[C@@H](C)C3)ccc(C#N)c2n1 [Example 106, 5-[(4S,9aS)-4-methyl-8-[4-[(2R)-morpholin-2-yl]phenyl]-3,4,6,7,9,9a-hexahydro-1H-pyrazino[1,2-a]pyrazin-2-yl]-2-deuterio-quinoline-8-carbonitrile] | 4 nM | 128 nM
2 | C[C@@H]1CN(c2ccc(C#N)c3ncccc23)C[C@@H]2CN(Cc3cncc(N4CCNCC4)c3)CCN21 [Example 57, 5-[(4R,9aS)-4-methyl-8-[(5-piperazin-1-yl-3-pyridyl)methyl]-3,4,6,7,9,9a-hexahydro-1H-pyrazino[1,2-a]pyrazin-2-yl]quinoline-8-carbonitrile] | 22 nM | 94 nM
3 | C[C@@H]1CN(c2ccc(C#N)c3ncccc23)C[C@@H]2CN(Cc3cccc4c3CNCC4)CCN21 [Example 71, 5-[(4R,9aS)-4-methyl-8-(1,2,3,4-tetrahydroisoquinolin-8-ylmethyl)-3,4,6,7,9,9a-hexahydro-1H-pyrazino[1,2-a]pyrazin-2-yl]quinoline-8-carbonitrile] | 21 nM | 79 nM
4 | C[C@@H]1CN(c2ccc(C#N)c3ncccc23)C[C@@H]2CN(CCc3ccc(N4CC5(CN(C)C5)C4)nc3)CCN21 [Example 22, 5-[(4R,9aS)-4-methyl-8-[2-[6-(6-methyl-2,6-diazaspiro[3.3]heptan-2-yl)-3-pyridyl]ethyl]-3,4,6,7,9,9a-hexahydro-1H-pyrazino[1,2-a]pyrazin-2-yl]quinoline-8-carbonitrile] | 58 nM | 47 nM
5 | C[C@@H]1CN(c2ccc(C#N)c3ncccc23)C[C@@H]2CN(c3ccnc(N4CC(C)(N)C4)c3)CCN21 [Example 56, 5-[(4R,9aS)-8-[2-(3-amino-3-methyl-azetidin-1-yl)-4-pyridyl]-4-methyl-3,4,6,7,9,9a-hexahydro-1H-pyrazino[1,2-a]pyrazin-2-yl]quinoline-8-carbonitrile] | 8 nM | < 32 nM
6 | C[C@@H]1CN(c2ccc(C#N)c3ncccc23)C[C@@H]2CN(c3nccc4c3CCNC4)CCN21 [Example 16, 5-[(4R,9aR)-4-methyl-8-(5,6,7,8-tetrahydro-2,6-naphthyridin-1-yl)-3,4,6,7,9,9a-hexahydro-1H-pyrazino[1,2-a]pyrazin-2-yl]quinoline-8-carbonitrile] | 9 nM | 120 nM
7 | CO[C@@H]1CN(c2ccc(CCN3CCN4[C@@H](C3)CN(c3ccc(C#N)c5ncccc35)C[C@H]4C)cn2)C[C@H]1N [Example 12, 5-[(4R,9aS)-8-[2-[6-[(3R,4R)-3-amino-4-methoxy-pyrrolidin-1-yl]-3-pyridyl]ethyl]-4-methyl-3,4,6,7,9,9a-hexahydro-1H-pyrazino[1,2-a]pyrazin-2-yl]quinoline-8-carbonitrile] | 14 nM | 47 nM
8 | [2H]c1ccc2c(N3C[C@@H]4CN(Cc5ccc6c(c5)CNCC6)CCN4[C@H](C)C3)ccc(C#N)c2n1 [Example 61, 5-[(4R,9aS)-4-methyl-8-(1,2,3,4-tetrahydroisoquinolin-7-ylmethyl)-3,4,6,7,9,9a-hexahydro-1H-pyrazino[1,2-a]pyrazin-2-yl]-2-deuterio-quinoline-8-carbonitrile] | 8 nM | 64 nM
9 | [2H]c1ccc2c(N3C[C@@H]4CN(c5ncc(N6CC7CC(C6)N7)cc5C)CCN4[C@@H](C)C3)ccc(C#N)c2n1 [Example 108, 5-[(4S,9aR)-8-[5-(3,6-diazabicyclo[3.1.1]heptan-3-yl)-3-methyl-2-pyridyl]-4-methyl-3,4,6,7,9,9a-hexahydro-1H-pyrazino[1,2-a]pyrazin-2-yl]-2-deuterio-quinoline-8-carbonitrile] | 6 nM | 98 nM
10 | [2H]c1ccc2c(N3C[C@@H]4CN(c5ccc(N6CC7CCC(C6)N7)nc5)CCN4[C@@H](C)C3)ccc(C#N)c2n1 [Example 112, 5-[(4S,9aR)-8-[6-(3,8-diazabicyclo[3.2.1]octan-3-yl)-3-pyridyl]-4-methyl-3,4,6,7,9,9a-hexahydro-1H-pyrazino[1,2-a]pyrazin-2-yl]-2-deuterio-quinoline-8-carbonitrile] | 10 nM | 82 nM
11 | [2H]c1ccc2c(N3C[C@@H]4CN(c5ncc(N6C[C@@H]7C[C@H]6CN7)cc5C)CCN4[C@@H](C)C3)ccc(C#N)c2n1 [Example 111, 5-[(4S,9aR)-8-[5-[(1S,4S)-2,5-diazabicyclo[2.2.1]heptan-2-yl]-3-methyl-2-pyridyl]-4-methyl-3,4,6,7,9,9a-hexahydro-1H-pyrazino[1,2-a]pyrazin-2-yl]-2-deuterio-quinoline-8-carbonitrile] | 5 nM | 119 nM
12 | C[C@@H]1CN(c2ccc(C#N)c3ncccc23)C[C@@H]2CN(c3nccc(N4CCNCC4)n3)CCN21 [Example 30, 5-[(4R,9aR)-4-methyl-8-(4-piperazin-1-ylpyrimidin-2-yl)-3,4,6,7,9,9a-hexahydro-1H-pyrazino[1,2-a]pyrazin-2-yl]quinoline-8-carbonitrile] | 21 nM | 72 nM
13 | C[C@@H]1CN(c2ccc(C#N)c3ncccc23)C[C@@H]2CN(c3ccnc(N4CC[C@@](C)(N)C4)c3)CCN21 [Example 105, 5-[(4R,9aS)-8-[2-[(3R)-3-amino-3-methyl-pyrrolidin-1-yl]-4-pyridyl]-4-methyl-3,4,6,7,9,9a-hexahydro-1H-pyrazino[1,2-a]pyrazin-2-yl]quinoline-8-carbonitrile] | 7 nM | < 32 nM
14 | C[C@@H]1CN(c2ccc(C#N)c3ncccc23)C[C@@H]2CN(Cc3ccc(N4CCNCC4)nc3)CCN21 [Example 8, 5-[(4R,9aS)-4-methyl-8-[(6-piperazin-1-yl-3-pyridyl)methyl]-3,4,6,7,9,9a-hexahydro-1H-pyrazino[1,2-a]pyrazin-2-yl]quinoline-8-carbonitrile] | 52 nM | 41 nM
15 | CO[C@@H]1CN(c2ccc(CCN3CCN4[C@@H](C3)CN(c3ccc(C#N)c5ncccc35)C[C@H]4C)nc2)C[C@H]1N [Example 13, 5-[(4R,9aS)-8-[2-[5-[(3R,4R)-3-amino-4-methoxy-pyrrolidin-1-yl]-2-pyridyl]ethyl]-4-methyl-3,4,6,7,9,9a-hexahydro-1H-pyrazino[1,2-a]pyrazin-2-yl]quinoline-8-carbonitrile] | 9 nM | 40 nM
16 | [2H]c1ccc2c(N3C[C@@H]4CN(c5ccc(CCN6C[C@H](OC)[C@@H](N)C6)cn5)CCN4[C@H](C)C3)ccc(C#N)c2n1 [Example 109, 5-[(4R,9aR)-8-[5-[2-[(3S,4S)-3-amino-4-methoxy-pyrrolidin-1-yl]ethyl]-2-pyridyl]-4-methyl-3,4,6,7,9,9a-hexahydro-1H-pyrazino[1,2-a]pyrazin-2-yl]-2-deuterio-quinoline-8-carbonitrile] | 4 nM | 111 nM
